Measured values taken from PubChem BioAssay AID1963828 (Molecular Pharmacology Branch, DTP, NCI, 2024).

Test system: 991263-137-R1-J2-PDC complex spheroid viability
Test: Anticancer human tumor 991263-137-R1-J2-PDC patient-derived colon adenocarcinoma cell line growth inhibition [POLQ]
Details: for IC50: curve of first compound; for viability, T/C: stronger effect = lower value
In short: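 Complex spheroid viability model combining PDC tumour cells with endothelial (HUVEC) and MSC stromal cells. Novobiocin, ART-558 or RP6685 were tested singly and in combination with standard and investigational anticancer drugs. Each was titrated in half-log steps from near clinical Cmax, or from 10 microM where Cmax was unknown.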

[1] = second compound 0.0316 µM, first compound 0.0316 µM
[2] = second compound 0.0316 µM, first compound 0.1 µM
[3] = second compound 0.0316 µM, first compound 0.316 µM
[4] = second compound 0.0316 µM, first compound 1 µM
[5] = second compound 0.1 µM, first compound 0.0316 µM
[6] = second compound 0.1 µM, first compound 0.1 µM
[7] = second compound 0.1 µM, first compound 0.316 µM
[8] = second compound 0.1 µM, first compound 1 µM
[9] = second compound 0.316 µM, first compound 0.0316 µM
[10] = second compound 0.316 µM, first compound 0.1 µM
[11] = second compound 0.316 µM, first compound 0.316 µM
[12] = second compound 0.316 µM, first compound 1 µM
[13] = second compound 1 µM, first compound 0.0316 µM
[14] = second compound 1 µM, first compound 0.1 µM
[15] = second compound 1 µM, first compound 0.316 µM
[16] = second compound 1 µM, first compound 1 µM
[17] = second compound 3.16 µM, first compound 0.0316 µM
[18] = second compound 3.16 µM, first compound 0.1 µM
[19] = second compound 3.16 µM, first compound 0.316 µM
[20] = second compound 3.16 µM, first compound 1 µM
[21] = second compound 10 µM, first compound 0.0316 µM
[22] = second compound 10 µM, first compound 0.1 µM
[23] = second compound 10 µM, first compound 0.316 µM
[24] = second compound 10 µM, first compound 1 µM
[25] = second compound 0.0316 µM, first compound 3.16 µM
[26] = second compound 0.0316 µM, first compound 10 µM
[27] = second compound 0.1 µM, first compound 3.16 µM
[28] = second compound 0.1 µM, first compound 10 µM
[29] = second compound 0.316 µM, first compound 3.16 µM
[30] = second compound 0.316 µM, first compound 10 µM
[31] = second compound 1 µM, first compound 3.16 µM
[32] = second compound 1 µM, first compound 10 µM
[33] = second compound 3.16 µM, first compound 3.16 µM
[34] = second compound 3.16 µM, first compound 10 µM
[35] = second compound 10 µM, first compound 3.16 µM
[36] = second compound 10 µM, first compound 10 µM
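Further: spheroids exposed to compounds for 7 days before readout.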
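Wherever viability, T/C is given: 100% = DMSO vehicle control viability.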

## C=CCn1c(=O)c2cnc(Nc3ccc(N4CCN(C)CC4)cc3)nc2n1-c1cccc(C(C)(C)O)n1 + Nc1ccc(C#CCN(C(=O)Cc2ncc(C(F)(F)F)cc2C(F)(F)F)c2ccc(F)cc2)nn1
Second compound 0.0316 µM
  IC50: > 1 µM
Second compound 0.1 µM
  IC50: > 1 µM
Second compound 0.316 µM
  IC50: > 1 µM
Second compound 1 µM
  IC50: > 1 µM
Second compound 3.16 µM
  IC50: > 1 µM
Second compound 10 µM
  IC50: > 1 µM
Second compound 0.0316 µM, first compound 0.00316 µM
  viability, T/C: 96.2%
Second compound 0.0316 µM, first compound 0.01 µM
  viability, T/C: 100%
[1]
  viability, T/C: 90.4%
[2]
  viability, T/C: 102%
[3]
  viability, T/C: 104%
[4]
  viability, T/C: 97.8%
Second compound 0.1 µM, first compound 0.00316 µM
  viability, T/C: 117%
Second compound 0.1 µM, first compound 0.01 µM
  viability, T/C: 105%
[5]
  viability, T/C: 93.6%
[6]
  viability, T/C: 101%
[7]
  viability, T/C: 103%
[8]
  viability, T/C: 93.8%
Second compound 0.316 µM, first compound 0.00316 µM
  viability, T/C: 97.3%
Second compound 0.316 µM, first compound 0.01 µM
  viability, T/C: 98.2%
[9]
  viability, T/C: 108%
[10]
  viability, T/C: 96.3%
[11]
  viability, T/C: 109%
[12]
  viability, T/C: 93.5%
Second compound 1 µM, first compound 0.00316 µM
  viability, T/C: 103%
Second compound 1 µM, first compound 0.01 µM
  viability, T/C: 115%
[13]
  viability, T/C: 103%
[14]
  viability, T/C: 105%
[15]
  viability, T/C: 105%
[16]
  viability, T/C: 92%
Second compound 3.16 µM, first compound 0.00316 µM
  viability, T/C: 91.8%
Second compound 3.16 µM, first compound 0.01 µM
  viability, T/C: 102%
[17]
  viability, T/C: 101%
[18]
  viability, T/C: 92.1%
[19]
  viability, T/C: 98.1%
[20]
  viability, T/C: 102%
Second compound 10 µM, first compound 0.00316 µM
  viability, T/C: 86.3%
Second compound 10 µM, first compound 0.01 µM
  viability, T/C: 102%
[21]
  viability, T/C: 103%
[22]
  viability, T/C: 99.4%
[23]
  viability, T/C: 102%
[24]
  viability, T/C: 78.2%

## C=CC(=O)N1CCN(c2nc(=O)n(-c3c(C)ccnc3C(C)C)c3nc(-c4c(O)cccc4F)c(F)cc23)C(C)C1 (stereo unspecified) + Cc1cccc(N(C)C(=O)C2C(O)CCN2c2nc(C)cc(C(F)(F)F)c2C#N)c1
Second compound 0.0316 µM
  IC50: > 10 µM
Second compound 0.1 µM
  IC50: > 10 µM
Second compound 0.316 µM
  IC50: > 10 µM
Second compound 1 µM
  IC50: > 10 µM
Second compound 3.16 µM
  IC50: > 10 µM
Second compound 10 µM
  IC50: > 10 µM
[1]
  viability, T/C: 104%
[2]
  viability, T/C: 109%
[3]
  viability, T/C: 93.5%
[4]
  viability, T/C: 103%
[25]
  viability, T/C: 114%
[26]
  viability, T/C: 115%
[5]
  viability, T/C: 114%
[6]
  viability, T/C: 112%
[7]
  viability, T/C: 102%
[8]
  viability, T/C: 90.5%
[27]
  viability, T/C: 116%
[28]
  viability, T/C: 107%
[9]
  viability, T/C: 97.6%
[10]
  viability, T/C: 107%
[11]
  viability, T/C: 102%
[12]
  viability, T/C: 90.3%
[29]
  viability, T/C: 120%
[30]
  viability, T/C: 104%
[13]
  viability, T/C: 88%
[14]
  viability, T/C: 117%
[15]
  viability, T/C: 107%
[16]
  viability, T/C: 81.7%
[31]
  viability, T/C: 115%
[32]
  viability, T/C: 124%
[17]
  viability, T/C: 98.7%
[18]
  viability, T/C: 118%
[19]
  viability, T/C: 95.7%
[20]
  viability, T/C: 91.7%
[33]
  viability, T/C: 123%
[34]
  viability, T/C: 107%
[21]
  viability, T/C: 101%
[22]
  viability, T/C: 107%
[23]
  viability, T/C: 108%
[24]
  viability, T/C: 116%
[35]
  viability, T/C: 116%
[36]
  viability, T/C: 103%

## CC(C)n1c(=O)n(C)c2cnc3cc(F)c(-c4ccc(OCCCN5CCCCC5)nc4)cc3c21 + Nc1ccc(C#CCN(C(=O)Cc2ncc(C(F)(F)F)cc2C(F)(F)F)c2ccc(F)cc2)nn1
Second compound 0.0316 µM
  IC50: > 10 µM
Second compound 0.1 µM
  IC50: > 10 µM
Second compound 0.316 µM
  IC50: > 10 µM
Second compound 1 µM
  IC50: > 10 µM
Second compound 3.16 µM
  IC50: > 10 µM
Second compound 10 µM
  IC50: > 10 µM
[1]
  viability, T/C: 96.6%
[2]
  viability, T/C: 109%
[3]
  viability, T/C: 111%
[4]
  viability, T/C: 121%
[25]
  viability, T/C: 98.8%
[26]
  viability, T/C: 111%
[5]
  viability, T/C: 103%
[6]
  viability, T/C: 99.8%
[7]
  viability, T/C: 102%
[8]
  viability, T/C: 121%
[27]
  viability, T/C: 101%
[28]
  viability, T/C: 85.8%
[9]
  viability, T/C: 104%
[10]
  viability, T/C: 99.4%
[11]
  viability, T/C: 101%
[12]
  viability, T/C: 110%
[29]
  viability, T/C: 103%
[30]
  viability, T/C: 111%
[13]
  viability, T/C: 105%
[14]
  viability, T/C: 100%
[15]
  viability, T/C: 105%
[16]
  viability, T/C: 104%
[31]
  viability, T/C: 95.5%
[32]
  viability, T/C: 90.1%
[17]
  viability, T/C: 90.7%
[18]
  viability, T/C: 97.7%
[19]
  viability, T/C: 106%
[20]
  viability, T/C: 118%
[33]
  viability, T/C: 111%
[34]
  viability, T/C: 105%
[21]
  viability, T/C: 99%
[22]
  viability, T/C: 96.2%
[23]
  viability, T/C: 112%
[24]
  viability, T/C: 94.5%
[35]
  viability, T/C: 93.5%
[36]
  viability, T/C: 101%
